The results in this text go back to patent US7858609B2, “Solid ganaxolone formulations and methods for the making and use thereof” (Marinus Pharmaceuticals, priority 2005, dated 2010).

The structures appear in SMILES notation.

The series can be described thus: Solubility of ganaxolone using water soluble beta cyclodextrins. The settings on record: using water soluble beta cyclodextrins (beta-sulfobutyl-cyclodextrin, 2-hydroxypropylbetacyclodextrin). It counts as physicochemical. The text has this: Ganaxolone formulations suitable for intramuscular, subcutaneous, or intravenous injection may comprise physiologically acceptable sterile aqueous or non-aqueous solutions, dispersions, suspensions or emulsions, and sterile powders for reconstitution into sterile injectable solutions or dispersions. Examples of suitable aqueous and non-aqueous carriers, diluents, solvents, or vehicles including water, ethanol, polyols (propylene glycol, polyethylene-glycol, glycerol, cremophor and the like), suitable mixtures thereof, vegetable oils (such as olive oil) and injectable organic esters such as ethyl oleate. Additionally, Ganaxolone can be dissolved at concentrations of >1 mg/ml using water soluble beta cyclodextrins (e.g. beta-sulfobutyl-cyclodextrin and 2-hydroxypropylbetacyclodextrin. Proper fluidity can be maintained, for example, by the use of a coating such as lecithin, by the maintenance of the required particle size in the case of dispersions, and by the use of surfactants. Ganaxolone formulations suitable for subcutaneous injection may also contain additives such as preserving, wetting, emulsifying, and dispensing agents. Prevention of the growth of microorganisms can be ensured by various antibacterial and antifungal agents, such as parabens, benzoic acid, benzyl alcohol, chlorobutanol, phenol, sorbic acid, and the like. […]

In turn, `CC(=O)[C@H]1CC[C@H]2[C@@H]3CC[C@H]4C[C@](C)(O)CC[C@]4(C)[C@H]3CC[C@]12C` [Ganaxolone, 3α-hydroxy-3β-methyl-5α-pregnan-20-one] displayed a dissolved concentration greater than 1 mg/mL.
